These results are taken from article PMC13055374, “Engineered antimicrobial-derived peptides to manipulate mixed microbial systems” (Microbiology Spectrum, 2026).

One may read the EC50 as the midpoint of the concentration-response curve. High values mean weaker potency, low ones greater potency.

Molecules are shown by their SMILES. Marks after values point to notes of the source that are not given here. Where only a bound is given, the exact number is not on record here.

Data set [1] has as its system L. coryniformis. In kind it is cell-based, Lactobacillus coryniformis. Particulars: 24 h. On the procedure:
(§1) To determine the potency of the purified pediocin PA-1, we generated kill curves against a range of target bacteria (Fig. 1C). The concentration range tested was 3 pM to 3 μM following 10-fold serial dilutions. […] This is in approximate agreement with the published potency of pediocin PA-1 ([46]). Though the molecular mass of pediocin PA-1 is expected to be 4.5 kDa, we observed the partially purified peptide to migrate with an apparent mass of ~12.5 kDa (Fig. 1B). However, subsequent analysis by LC-MS yielded peaks of multiple m/z with the predominant peak at the expected molecular size of 4.6 kDa (Fig. S4). The purified pediocin PA-1, separated on denaturing but non-reducing SDS-PAGE (since this bacteriocin contains two crucial disulfide bonds), was subjected to agar-overlay assay using L. seeligeri as the indicator organism (Fig. S5).
(§2) The antimicrobial spectrum of pediocin PA-1 was assayed using a kill curve. Cultures grown overnight were resuspended in fresh medium at an OD600 of 0.05. EC50 was determined by incubating cells with varying concentrations of pediocin in a 96-well plate, and growth was measured at 600 nm after 24 h.

The format of data set [2] is physicochemical. The text has this:
(§3) We then proceeded to clone the pediocin operon (pedABCD [43]) from P. acidilactici UL5 into the pSIP-P27 vector for heterologous expression in other lactic acid bacteria, viz., Lactiplantibacillus plantarum WCFS1, Lactococcus cremoris MG1363, and the well-established expression host, E. coli MG1655. The pediocin operon imparted anti-listerial activity to the L. plantarum culture supernatant but not to that of L. cremoris or E. coli (Fig. 1A). Based on the degree of bioactivity, we concluded that the level of recombinant biosynthetic pediocin PA-1 accumulated in L. plantarum culture was similar to that observed for P. acidilactici UL5 and was therefore not pursued further. Thus, for subsequent studies, we isolated pediocin PA-1 from P. acidilactici UL5 directly using the cell adsorption-desorption approach (Fig. S2). […] We attempted to further purify the preparation using reverse-phase high performance liquid chromatography with minimal enhancement in purity but a significant loss in yield (Fig. S3). The peptide recovered after cell adsorption-desorption and dialysis was lyophilized for long-term storage to minimize any loss in activity. The peptide using this method was purified 189-fold with a specific activity of 9,434 AU·mg^−1 as measured by agar-well diffusion method (Fig. 1B; Fig. S2A through C).

The test system of the next data set is E. coli. Kind of data set: Cell-binding assay by flow cytometry. Also noted: species or system Escherichia coli. Conditions: negative control species; signal did not saturate; read-out: Apparent KD. Here is the method:
(§4) The binding affinity and avidity of pediocin to various gram-positive and gram-negative bacteria were studied using flow cytometry. Late log-phase cells were washed in the sodium phosphate buffer (5 mM, pH 6.0) and resuspended at an OD600 of 10^–3 in sodium-acetate buffer (25 mM, pH 4.0), sodium phosphate buffer (5 mM, pH 6.0), or sodium phosphate buffer (5 mM, pH 7.4) containing 1% bovine serum albumin (BSA) and 100 mM NaCl. Cells were incubated with varying concentrations of the conjugated peptide at 4°C for 30 min. The unbound peptide was removed by centrifugation, and the pellet was resuspended in its respective binding buffer containing 1% BSA. Flow cytometry was performed on an Attune NxT flow cytometer (Life Technologies/ThermoFisher Scientific, Carlsbad, CA). Data (≥10^4 events were recorded) were recorded using a […] (488 nm) at a voltage of 360 V, and gating was performed on an SSC-A versus SSC-H plot to reduce false events.
(Flow cytometry measures light scatter and fluorescence of single cells or particles in a stream.)

The test system of a further data set is Bacillus subtilis. Kind of data set: Cell-binding assay by flow cytometry. Conditions: maximum mean fluorescence intensity, Hill fit. On the procedure:
as §4

A further data set relates to L. casei. Nature of the data set: Cell-binding assay by flow cytometry. Also noted: species or system Lacticaseibacillus casei. Conditions: signal did not saturate. On the procedure:
as §4

The test system of the next data set is L. cremoris. Nature of the data set: Cell-binding assay by flow cytometry. Further details: species or system Lactococcus cremoris. Particulars: organism printed as L. lactis; signal did not saturate; read-out: Apparent KD. Here is the method:
as §4

Data set [3] is described as follows: Specific activity of partially purified pediocin by agar-well diffusion method. Format: cell-based. Conditions: after cell adsorption-desorption and dialysis.
Excerpt: as §3, with “C). […]” for “C).”
In general terms: In agar diffusion tests the substance spreads into inoculated agar from a disc or well.

The subject of the next data set is L. seeligeri. In kind it is cell-based, Listeria seeligeri. Conditions: 24 h. Here is the method: as §1, §2
Figure S7. Growth inhibition of L. seeligeri by modified and unmodified pediocin PA-1.

The subject of data set [4] is L. coryniformis. Kind of data set: Cell-binding assay by flow cytometry. Further details: species or system Lactobacillus coryniformis. Conditions: maximum mean fluorescence intensity, Hill fit. Here is the method:
as §4

Take `CC[C@H](C)[C@@H]1NC(=O)[C@@H](NC(=O)[C@@H](NC(=O)[C@@H](NC(=O)[C@H](C)NC(=O)[C@H](CCCCN)NC(=O)CNC(=O)[C@H](Cc2c[nH]c3ccccc23)NC(=O)[C@H](CC(=O)O)NC(=O)[C@@H](NC(=O)[C@H](CO)NC(=O)[C@@H]2CSSC[C@H](NC(=O)[C@@H](NC(=O)[C@@H](NC(=O)CNC(=O)[C@H](CC(N)=O)NC(=O)CNC(=O)[C@H](Cc3ccc(O)cc3)NC(=O)[C@H](Cc3ccc(O)cc3)NC(=O)[C@@H](N)CCCCN)C(C)C)[C@@H](C)O)C(=O)NCC(=O)N[C@@H](CCCCN)C(=O)N[C@@H](Cc3c[nH]cn3)C(=O)N[C@@H](CO)C(=O)N2)C(C)C)[C@@H](C)O)[C@@H](C)O)CSSC[C@@H](C(=O)O)NC(=O)[C@H](CCCCN)NC(=O)[C@H](Cc2c[nH]cn2)NC(=O)[C@H](CC(N)=O)NC(=O)CNC(=O)[C@H](CCC(N)=O)NC(=O)[C@H](Cc2c[nH]cn2)NC(=O)CNC(=O)CNC(=O)[C@H]([C@@H](C)O)NC(=O)[C@H](C)NC(=O)[C@H](Cc2c[nH]c3ccccc23)NC(=O)[C@H](C)NC(=O)[C@H](CCSC)NC(=O)[C@H](C)NC(=O)CNC(=O)[C@H](CC(N)=O)NC(=O)[C@H](CC(N)=O)NC(=O)[C@H]([C@@H](C)CC)NC1=O` [pediocin PA-1]: the values for the EC50 with L. coryniformis [1] and with L. seeligeri were about 1 nM and about 13.3 nM, respectively. The “stability of peptide recovered at acidic pH compared with basic pH” value in data set [2] is “more stable”. For the same compound, the Kd in the data set on E. coli, in the data set on L. casei (read-out: Apparent KD) and with L. cremoris was over 2000 nM each time. Moreover, the MFImax in the data set with Bacillus subtilis is listed as 7 ± 1 ×10^3; with L. casei, >2* ×10^3; in the data set on L. coryniformis [4], 6.3 ± 0.3 ×10^3. In data set [3], the specific activity was 9,434 AU·mg^−1.
